Earlier results on three compounds are cited in patent US6379706B2, “Rapidly disintegrating coated pellets with delayed release” (Roche Diagnostics GmbH, priority 1996, dated 2002).

The conditions of this series: for solubility (in words): aqueous medium.

SMILES strings stand for the structures.

For `Cc1cccc(Nc2ccncc2S(=O)(=O)NC(=O)NC(C)C)c1` [Torasemid, 1-isopropyl-3-[(4-m-toluidino-3-pyridyl)sulfonyl]-urea], the “solubility (in words)” value is reported as “poorly soluble”.
For `CC(C)(Oc1ccc(CCNC(=O)c2ccc(Cl)cc2)cc1)C(=O)O` [Bezafibrat, 2-{4-[2-[(4-chloro-benzoyl)-amino]ethyl]-phenoxy}-2-methylpropionic acid], the “solubility (in words)” value is “poorly soluble”.
Take `COc1ccccc1OCCNCC(O)COc1cccc2[nH]c3ccccc3c12` (racemic) [Carvedilol, (+/−)-1-(9H-carbazol-4-yloxy)-3-[(2-(2-methoxyphenoxy)-ethyl)-amino]-2-propanol]: the “solubility (in words)” value is on record as “poorly soluble”. In addition, for the setting “intestinal juice”, the “solubility in the intestinal juice (in words)” value was “particularly poorly soluble”.
